# Publication PMC7985297 (Communications Biology, 2021)
# Several values for one entry are separate records, joined by “and”; a condition that tells them apart may be missing. Equal entries are not always repeated.
# What was measured:
# full-length AR = biological target: T1, full-length AR (Homo sapiens, UniProt P10275, T878A); experiment: PSA(6.1 kb)-luciferase AR-driven reporter assay in LNCaP cells; format: cell-based; conditions: for PSA(6.1 kb)-luciferase activity normalized to fold-induction by R1881 (=100): without or with ATRA 5uM; for fractional response (Fig. 5h): monotherapy or with 5 µM ATRA
# T1 construct: Transcriptional activity of full-length AR was assessed in LNCaP cells; endogenous in cells; host or cells: LNCaP
# T1 sequence (P10275 1-920 T878A): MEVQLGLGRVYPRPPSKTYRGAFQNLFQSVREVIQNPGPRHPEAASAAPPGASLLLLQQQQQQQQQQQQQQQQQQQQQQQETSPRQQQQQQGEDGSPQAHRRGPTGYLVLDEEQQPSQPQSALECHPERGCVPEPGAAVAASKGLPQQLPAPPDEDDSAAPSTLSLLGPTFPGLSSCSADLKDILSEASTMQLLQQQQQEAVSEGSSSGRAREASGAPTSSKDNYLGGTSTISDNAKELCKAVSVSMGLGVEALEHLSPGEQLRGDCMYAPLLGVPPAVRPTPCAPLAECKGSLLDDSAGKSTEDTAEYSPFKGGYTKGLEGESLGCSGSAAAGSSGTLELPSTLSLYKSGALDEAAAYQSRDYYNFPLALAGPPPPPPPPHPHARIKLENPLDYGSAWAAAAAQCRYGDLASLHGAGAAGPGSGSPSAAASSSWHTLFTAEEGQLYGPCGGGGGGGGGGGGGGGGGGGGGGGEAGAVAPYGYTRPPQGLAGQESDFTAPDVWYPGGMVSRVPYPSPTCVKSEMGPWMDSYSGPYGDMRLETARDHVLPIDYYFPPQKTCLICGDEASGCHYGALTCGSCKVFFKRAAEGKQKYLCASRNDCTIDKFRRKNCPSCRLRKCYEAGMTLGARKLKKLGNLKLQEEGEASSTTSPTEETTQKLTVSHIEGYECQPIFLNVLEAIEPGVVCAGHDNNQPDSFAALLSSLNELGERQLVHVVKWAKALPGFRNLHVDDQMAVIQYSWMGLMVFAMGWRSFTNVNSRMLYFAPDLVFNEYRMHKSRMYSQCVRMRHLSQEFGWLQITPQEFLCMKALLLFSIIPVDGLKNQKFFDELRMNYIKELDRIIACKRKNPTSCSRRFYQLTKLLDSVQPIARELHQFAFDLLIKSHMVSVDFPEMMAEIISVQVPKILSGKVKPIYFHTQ
# [1] = tested on: Ki-67, PSA and AR in LN95-D3 xenografts; experiment: Immunohistochemistry of LN95-D3 xenografts (Ki-67, PSA, AR); format: in vivo, mice
# From the text: Fig. 8 Immunohistochemistry of LN95-D3 xenografts. a Representative images showing the histomorphology and expression of Ki-67, PSA, and AR from harvested tumors. Scale bars represent 100 µm. Statistical analysis for b the percentage of Ki-67-positive tumor cells and for the expression of c PSA and d AR. Error bars represent the mean ± s.d.
# Sections were cut from formalin-fixed, paraffin-embedded tumor tissue at a thickness of 5 µm, deparaffinized in xylene, and then rehydrated in alcohols and distilled water. Endogenous peroxidase was blocked by incubating with a 3% hydrogen peroxide solution for 5 min. […] PSA was detected using a monoclonal mouse anti-human PSA antibody concentrate (ER-PR8; Dako). A negative control without the primary antibody was included for each sample on the same slide. Antigen was detected with 3,3-diaminobenzidine (DAB) and hematoxylin was used for counterstaining. Images were captured on an Axio Imager M2 microscope (Zeiss) at ×200 magnification. The percentage of Ki-67-positive cells was determined with ImageJ using the Cell Counter plugin. At least 1000 cells were scored from three images of representative tumors for each treatment group. The intensity of DAB staining for PSA was quantified by ImageJ using color deconvolution and measuring the mean gray value for the DAB image, where optical density = log(max intensity/mean intensity), and a max intensity of 255 for an 8-bit image.
# [2] = tested on: Pin1, Cyclin D1, Skp2 and AR in LN95-D3 tumors; experiment: Western blot of harvested LN95-D3 xenograft tumors (Pin1, Cyclin D1, Skp2, AR); format: in vivo, mice; conditions: LN95-D3 tumors at end of study
# Method: Scale bars represent 5 mm (f) western blot analysis showing the expression of Pin1, Cyclin D1, Skp2, and AR from representative tumors. Quantification of the data is shown for g Pin1 and h Skp2, where the error bars represent the mean ± s.e.m.
# All experiments involving animals conform to the relevant regulatory and ethical standards and were approved by the University of British Columbia Animal Care Committee (A18-0077). Metacam (1 mg/kg, 0.05 mL/10 g of body weight) was administered subcutaneously prior to any surgery. Animals were anesthetized with isoflurane and euthanized by CO2. Six–eight-week-old male (NOD-scid IL2Rgamma^null) mice were maintained in the Animal Care Facility at the British Columbia Cancer Research Centre. Mice were castrated 2 weeks before they were subcutaneously inoculated in the right flank with two million LN95-D3 cells in a 1:1 volume of matrigel (Corning Discovery Labware, Corning, NY). […] Tumors were excised 1 day after the last dose and prepared for western blot analysis and immunohistochemistry.
# LN95-D3 xenografts = experiment: Growth of LN95-D3 CRPC xenografts in castrated male NSG mice; format: in vivo; conditions: castrated mice, ATRA 5 mg 21-day release pellet, EPI-7170 30 mg/kg daily oral, relative to vehicle/placebo-control
# LN95-D3 cells = experiment: Cell cycle analysis by flow cytometry, LN95-D3 subline; format: cell-based, human; conditions: LN95-D3, absence of androgen, 48 h
# [3] = tested on: androgen-regulated genes (KLK3/PSA, TMPRSS2, NKX3.1, FKBP5); experiment: Quantitative real-time PCR of androgen-regulated genes in LNCaP cells; format: cell-based, human; conditions: enzalutamide 5 μM, juglone 20 μM, R1881 1 nM, 48 hours
# [4] = tested on: Pin1 and cell cycle proteins in LN95 cells; experiment: Western blot of Pin1 and cell cycle proteins in LN95 cells; conditions: for CyclinA2 protein level (Fig. 6a) / CyclinB1 protein level (Fig. 6a) / CyclinD1 protein level (Fig. 6a) / Pin1 protein level (Fig. 6a) / p21 protein level (Fig. 6a) / p27 protein level (Fig. 6a): relative to 0 μM = 1, replicate experiments by date
# Method: Data shown are the means ± s.e.m. from 3–4 independent experiments. Statistical significance was determined by ANOVA using the Dunnett’s multiple comparisons test. *P < 0.05, **P < 0.01, ***P < 0.001.
# For western blot analyses, membranes were blocked with 5% non-fat milk in phosphate-buffered saline containing 0.1% Tween-20 (PBS-T) and then incubated overnight at 4 °C with primary antibody (1:200–5000) in PBS-T containing 5% non-fat milk or 2% BSA. After incubation with the primary antibody, the membrane was washed three times with TBS-T, incubated with a horseradish peroxidase-conjugated antibody secondary antibody (1:5000–10,000) for 1–2 h at room temperature, and washed three times with PBS-T and two more times with PBS before chemiluminescence was detected with ECL Prime Reagent (GE Healthcare Life Science, Mississauga, ON). Western blot images were captured using the ChemiDoc MP Imaging System (Bio-Rad Laboratories, Hercules, CA) and quantified using ImageJ software.
# [5] = biological target: T2, recombinant human Pin1 protein (Homo sapiens, UniProt Q13526); experiment: Pin1 inhibition assay (fluorometric isomerase activity); format: biochemical; conditions: compounds 0–50 µM, 500 ng Pin1, Supplementary Fig. 2
# T2 construct: purchased Abcam ab51230
# T2 sequence (Q13526 whole entry): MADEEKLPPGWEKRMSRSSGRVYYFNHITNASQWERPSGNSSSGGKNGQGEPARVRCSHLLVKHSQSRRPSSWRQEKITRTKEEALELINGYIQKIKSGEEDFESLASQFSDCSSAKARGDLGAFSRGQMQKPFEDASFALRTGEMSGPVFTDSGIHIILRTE
# Method: The effect of inhibitors on Pin1 isomerase activity was evaluated using a fluorometric Pin1 Assay Kit (AnaSpec, Fremont, California), according to the manufacturer’s protocol. […] Fluorescence intensity was measured with excitation wavelength at 490 nm and emission wavelength at 520 nm on an Infinite M1000 plate reader (Tecan, Männedorf, Switzerland) at 37 °C. Measurements were recorded every 5 min for up to 1 h.
# Fluorescent polarization-based assay
# the isomerase activity of Pin1. Each reaction contains 500 ng of
# recombinant human Pin1 protein incubated with an inhibitor and a
# fluorogenic substrate at 37°C. The uncatalyzed reaction represents
# the intrinsic cis/trans isomerization of the substrate without Pin1
# separate experiments with the correlation performed in duplicate
# wells. RFU, relative fluorescent units.
# (1 picture or pasted object on this page, not shown here)
smiles,measurement,setting,value
CC(C)(c1ccc(OC[C@H](O)CNS(C)(=O)=O)cc1)c1cc(Cl)c(OC[C@H](O)CCl)c(Cl)c1 [EPI-7170],inhibition of reporter activity at highest concentration,full-length AR; 4 µM of EPI-7170,~ 98%
same,"mean combination index (CI) with ATRA, PSA(6.1 kb)-luciferase","full-length AR; ATRA 5 μM, Bliss independence model, highest concentrations excluded",0.91
same,PSA(6.1 kb)-luciferase activity normalized to fold-induction by R1881 (=100),full-length AR; EPI-7170 0.2 μM,77.0788 and 79.4022 and 93.7923 and 73.47
same,PSA(6.1 kb)-luciferase activity normalized to fold-induction by R1881 (=100),full-length AR; EPI-7170 0.5 μM,56.3224 and 79.2412 and 61.2392 and 64.29
same,fractional response (Fig. 5h),full-length AR; EPI-7170 2 μM,0.8636 and 0.6689 and 0.7916 and 0.8858
same,fractional response (Fig. 5h),full-length AR; EPI-7170 4 μM,0.9949 and 0.9737 and 0.993 and 0.9732
same,IC50,"full-length AR; LNCaP, androgen-induced (R1881), 24 h, without ATRA, read-out: IC50 for PSA(6.1 kb) luciferase, monotherapy",0.74 ± 1.12 µM
same,effect on number of Ki-67-positive tumor cells,[1]; LN95-D3 xenografts,decreased the number of Ki-67-positive tumor cells in xenografts
same,levels of AR protein in xenografts (IHC),[1]; LN95-D3 xenografts,similar
same,"expression of AR, DAB staining (Fig. 8d)","[1]; LN95-D3 xenografts, ATRA 5 mg pellet, EPI-7170 30 mg/kg/d, listed as EPI placebo",0.086 and 0.114 and 0.139 and 0.128 and 0.109 and 0.1 and 0.132 and 0.137
same,percentage of Ki-67-positive tumor cells (Fig. 8b),"[1]; LN95-D3 xenografts, ATRA 5 mg pellet, EPI-7170 30 mg/kg/d, one value per tumor, listed as EPI placebo",19.68% and 14.7% and 15.02%
same,effect on PSA expression in xenografts (IHC),[1]; compared to the control,decreased
same,tumor levels of Skp2,[2],reduced
same,tumor growth after 21 days of treatment,LN95-D3 xenografts,significantly reduced
CNC(=O)c1ccc(N2C(=S)N(c3ccc(C#N)c(C(F)(F)F)c3)C(=O)C2(C)C)cc1F [enzalutamide],effect on cell cycle distribution,LN95-D3 cells,had no effect on the cell cycle distribution
same,effect on androgen-induced FKBP5 transcript,[3],efficiently blocked
"CC1=C(/C=C/C(C)=C/C=C/C(C)=C\C(=O)O)C(C)(C)CCC1 [13cisRA, 13-cis-retinoic acid]",CyclinA2 protein level (Fig. 6a),[4]; 1 μM,1.4 and 0.72 and 1.11
same,CyclinB1 protein level (Fig. 6a),[4]; 1 μM,1.01 and 0.65 and 1.18
same,CyclinD1 protein level (Fig. 6a),[4]; 1 μM,0.66 and 0.89 and 1.34 and 0.47
same,Pin1 protein level (Fig. 6a),[4]; 1 μM,1.03 and 1.11 and 1.06 and 0.77
same,p21 protein level (Fig. 6a),[4]; 1 μM,1.11 and 0.58 and 0.74
same,p27 protein level (Fig. 6a),[4]; 1 μM,1.11 and 0.36 and 0.65
same,CyclinA2 protein level (Fig. 6a),[4]; 5 μM,1.68 and 0.83 and 0.8
same,CyclinB1 protein level (Fig. 6a),[4]; 5 μM,1.11 and 0.76 and 0.82
same,CyclinD1 protein level (Fig. 6a),[4]; 5 μM,0.7 and 1.29 and 1.73 and 0.85
same,Pin1 protein level (Fig. 6a),[4]; 5 μM,0.96 and 1.44 (2×) and 0.77
same,p21 protein level (Fig. 6a),[4]; 5 μM,0.92 and 0.24 and 0.67
same,p27 protein level (Fig. 6a),[4]; 5 μM,0.91 and 0.32 and 0.6
same,CyclinA2 protein level (Fig. 6a),[4]; 10 μM,1.29 and 0.49 and 1.45
same,CyclinB1 protein level (Fig. 6a),[4]; 10 μM,1.06 and 0.77 and 1.15
same,CyclinD1 protein level (Fig. 6a),[4]; 10 μM,0.54 and 1.01 and 0.27 and 0.84
same,Pin1 protein level (Fig. 6a),[4]; 10 μM,0.95 and 0.71 and 1.33 and 1.23
same,p21 protein level (Fig. 6a),[4]; 10 μM,0.89 and 0.39 and 1.12
same,p27 protein level (Fig. 6a),[4]; 10 μM,1.06 and 0.44 and 1.1
same,effect on cellular Pin1 protein levels,"[4]; LN95, 0–10 µM",did not impact the cellular levels of Pin1
same,effect on isomerase activity of Pin1,[5],did not inhibit the isomerase activity of Pin1
